Data: the supplement of paper PMC10307832

Tests used:
Experiment in all cases: relative viability (nuclei count vs DMSO), 5 days (fraction); higher = more cells survive
[1] = compound: CC(C)N(CCCNC(=O)Nc1ccc(C(C)(C)C)cc1)C[C@H]1O[C@@H](n2ccc3c(N)ncnc32)[C@H](O)[C@@H]1O + O=C(c1cc(Cc2n[nH]c(=O)c3ccccc23)ccc1F)N1CCN(C(=O)C2CC2)CC1 [Olaparib] (partner 8 µM)
In short: (§1)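 Lung cancer cell lines in 1536-well plates were dosed by pin tool the day after seeding, either with one drug alone or with a fixed anchor-drug dose plus five library-drug doses (not always all listed) in √10 steps. After 5 days, cells were fixed and their nuclei stained in one step (final 0.05% Triton X-100, 1% formaldehyde, 1 ug/ml Hoechst), then counted on 4× images. Relative viability is the nuclei count in treated wells divided by that in vehicle wells. Values are medians of duplicate plates.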

Shikonin + Luminespib = compound: CC(C)=CC[C@@H](O)C1=CC(=O)c2c(O)ccc(O)c2C1=O [Shikonin] + CCNC(=O)c1noc(-c2cc(C(C)C)c(O)cc2O)c1-c1ccc(CN2CCOCC2)cc1 [Luminespib] (partner 0.01 µM)
In short: as §1

Shikonin + Trametinib = compound: CC(C)=CC[C@@H](O)C1=CC(=O)c2c(O)ccc(O)c2C1=O [Shikonin] + CC(=O)Nc1cccc(-n2c(=O)n(C3CC3)c(=O)c3c(Nc4ccc(I)cc4F)n(C)c(=O)c(C)c32)c1 [Trametinib] (partner 0.02 µM)
In short: as §1

[2] = compound: CC(C)N(CCCNC(=O)Nc1ccc(C(C)(C)C)cc1)C[C@H]1O[C@@H](n2ccc3c(N)ncnc32)[C@H](O)[C@@H]1O + CS(=O)(=O)N1CCN(Cc2cc3nc(-c4cccc5[nH]ncc45)nc(N4CCOCC4)c3s2)CC1 [Pictilisib] (partner 1 µM)
In short: as §1

Cell Line | relative viability ([1]; first compound 0.08 µM) | relative viability ([1]; first compound 0.253 µM) | relative viability ([1]; first compound 0.8 µM) | relative viability ([1]; first compound 2.53 µM) | relative viability ([1]; first compound 8 µM) | relative viability (Shikonin + Luminespib; first compound 0.01 µM) | relative viability (Shikonin + Luminespib; first compound 0.1 µM) | relative viability (Shikonin + Luminespib; first compound 0.3162 µM) | relative viability (Shikonin + Luminespib; first compound 1 µM) | relative viability (Shikonin + Trametinib; first compound 0.01 µM) | relative viability (Shikonin + Trametinib; first compound 0.1 µM) | relative viability (Shikonin + Trametinib; first compound 0.3162 µM) | relative viability (Shikonin + Trametinib; first compound 1 µM) | relative viability ([2]; first compound 0.08 µM) | relative viability ([2]; first compound 0.253 µM) | relative viability ([2]; first compound 0.8 µM) | relative viability ([2]; first compound 2.53 µM) | relative viability ([2]; first compound 8 µM)
HCC-827 | 0.63 | 0.706 | 0.562 | 0.616 | 0.488 | 0.518 | 0.887 | 0.638 | 0.64 | 0.561 | 0.496 | 0.563 | 0.517 | 0.951 | 1.1 | 0.886 | 1.07 | 0.9
HOP-62 | 0.242 | 0.642 | 0.261 | 0.347 | 0.314 | 0.975 | 0.763 | 0.96 | 0.914 | 0.389 | 0.374 | 0.394 | 0.401 | 0.723 | 0.413 | 0.655 | 0.776 | 0.342
IA-LM | 0.776 | 0.956 | 0.937 | 0.931 | 0.686 |  |  |  |  |  |  |  |  | 0.27 | 0.347 | 0.447 | 0.398 | 0.378
LC-2-ad | 0.67 | 0.717 | 0.715 | 0.699 | 0.626 | 0.934 | 1.11 | 1.08 | 1.07 | 0.962 | 1.02 | 1.02 | 0.945 | 0.612 | 0.518 | 0.413 | 0.511 | 0.427
LCLC-97TM1 | 0.343 | 0.318 | 0.205 | 0.319 | 0.294 | 0.833 | 0.776 | 0.878 | 0.717 | 0.179 | 0.237 | 0.2 | 0.202 | 0.184 |  | 0.147 | 0.202 | 0.178
LCLC-103H | 0.734 | 0.697 | 0.699 | 0.77 | 0.775 | 1.01 | 1.17 | 1.06 | 0.993 | 0.662 | 0.683 | 0.663 | 0.698 | 0.639 | 0.522 | 0.703 | 0.551 | 0.716
LK-2 | 0.713 | 0.544 | 0.771 | 0.632 | 0.82 | 0.195 | 0.185 | 0.211 | 0.17 | 0.884 | 0.935 | 0.799 | 0.732 | 0.56 | 0.532 | 0.651 | 0.644 | 0.609
LOU-NH91 | 0.886 | 0.86 |  | 0.984 | 0.899 | 0.317 | 0.358 | 0.382 | 0.332 | 0.815 | 0.839 | 0.838 | 0.791 | 0.537 | 0.527 |  | 0.556 | 0.545
LU99A | 0.322 | 0.252 | 0.264 | 0.275 | 0.237 | 0.165 | 0.242 | 0.268 | 0.177 | 0.537 | 0.563 | 0.567 | 0.478 | 0.332 | 0.287 | 0.411 | 0.369 | 0.312
LXF-289 | 1.02 | 1.08 | 1.1 | 1.1 | 0.991 | 0.721 | 0.625 | 0.604 | 0.814 | 0.668 | 0.756 | 0.712 | 0.701 | 0.775 | 0.752 | 0.788 | 0.852 | 0.738
NCI-H23 | 0.334 |  | 0.266 | 0.345 | 0.28 | 0.226 | 0.196 | 0.227 | 0.143 | 0.356 | 0.395 | 0.472 | 0.42 | 0.455 |  | 0.478 | 0.568 | 0.454
NCI-H322M | 0.741 | 0.797 | 0.72 | 0.765 | 0.625 | 0.942 | 0.855 | 0.82 | 0.847 | 0.498 | 0.459 | 0.513 | 0.564 | 0.54 | 0.478 | 0.566 | 0.44 | 0.57
NCI-H358 | 0.593 | 0.605 | 0.565 | 0.562 | 0.542 | 0.467 | 0.369 | 0.246 | 0.334 | 0.124 | 0.124 | 0.121 | 0.126 | 0.356 | 0.335 | 0.317 | 0.359 | 0.342
NCI-H441 | 0.558 | 0.632 |  | 0.544 | 0.573 | 0.349 | 0.339 | 0.371 | 0.323 | 0.468 | 0.487 | 0.528 | 0.451 | 0.442 | 0.423 | 0.361 | 0.539 | 0.47
NCI-H522 | 0.754 | 0.636 | 0.583 | 0.623 | 0.732 | 1.09 | 0.917 | 1.29 | 1.31 | 0.747 | 0.747 | 0.871 | 0.646 |  |  |  |  | 
NCI-H1299 | 1.03 | 0.926 | 1 | 0.96 | 0.923 |  |  |  |  |  |  |  |  | 0.944 | 0.834 | 0.912 | 0.76 | 0.726
NCI-H1563 |  |  |  |  |  | 0.575 | 0.465 | 0.542 | 0.453 |  |  |  |  | 0.678 | 0.607 | 0.616 | 0.679 | 0.636
NCI-H1623 |  |  |  |  |  | 0.513 | 0.552 | 0.609 | 0.368 |  |  |  |  |  |  |  |  | 
NCI-H1648 | 0.866 | 1 | 1.03 | 0.909 | 0.826 |  |  |  |  | 0.422 |  | 0.464 | 0.503 |  |  |  |  | 
NCI-H1703 | 0.52 | 0.446 |  | 0.571 | 0.349 |  |  |  |  |  |  |  |  | 0.223 | 0.247 | 0.257 | 0.244 | 0.24
NCI-H2342 | 0.4 | 0.463 | 0.419 | 0.431 | 0.444 | 0.763 | 0.65 | 0.752 | 0.702 | 0.902 | 0.686 | 0.88 | 0.843 |  |  |  |  | 
SW 900 | 0.783 | 0.875 |  | 0.798 | 0.772 | 0.192 | 0.173 | 0.207 | 0.155 | 0.809 | 0.934 | 0.969 | 0.741 |  |  |  |  | 
